The target of the experiment is T1, recombinant His-tag Y220C p53 DBD protein (Homo sapiens, UniProt P04637, Y220C).
T1 construct: recombinant His-tag Y220C p53 DBD protein (amino acids #˜94-312)
Briefly: In vitro DNA binding activity assay (TR-FRET): binding of His-tag Y220C p53 DBD to biotin-labeled consensus DNA. The conditions noted are these: for Y220C SC150 (μM): SC150 = concentration to increase DNA binding by […], His-tag Y220C p53 DBD, biotin-labeled consensus DNA; for SC150 (μM): concentration to increase DNA binding by […], incubated at either 27° C. or 29° C. for 60 min. It counts as biochemical. Here is the method: DNA binding activity of the compounds was measured using a TR-FRET (Time-Resolved Fluorescence Resonance Energy Transfer) assay in which recombinant His-tag Y220C p53 DBD protein binds to biotin-labeled consensus DNA. Binding of recombinant His-tag Y220C p53 DBD protein and biotin-labeled consensus DNA was registered by the FRET (fluorescence resonance energy transfer) between allophycocyanin (APC) conjugated anti-His tag antibody and Europium-(Eu) conjugated Streptavidin.
The compounds of TABLES 1-9 (2 mM stock in dimethylsulfoxide) were diluted 3-fold in series in dimethylsulfoxide. 1.2 μL of a compound solution was added to each well of 384-well polypropylene black plates (NUNC). Thirty μL per well of 181 nM recombinant His-tag Y220C p53 DBD protein (amino acids #˜94-312; SEQ ID NO: 1) and 6.1 nM of APC conjugated anti-His tag antibody (Columbia Biosciences) in ice-cold Assay Buffer 1 (50 mM Tris-HCl, pH 7.4, 75 mM KCl, 0.75 mM DTT and 0.2 mg/ml, BSA) were added. As a background control. 30 μL of Assay Buffer 1 containing 6.1 nM of APC anti-His antibody (No Y220C protein) was also added into a second set of serially diluted compound plates. The samples were spun by centrifuge at 1,200 rpm (Eppendorf 5810R Plate centrifuge) for 1 minute and incubated at room temperature (20° C.) for 15 min. The samples were then further incubated at either 27° C. or 29° C. for 60 min. […] The samples were spun by centrifuge at 1,200 rpm for 1 min and incubated at room temperature (20° C.) for 20 min. Assay signals were monitored by reading excitation at 340 nm, and emission fluorescence at 615 nm and 665 nm on an Envision® reader. Normalized TR-FRET (time-resolved fluorescence resonance energy transfer) assay signal (Rn) was calculated by the formula: Rn=[(A−Ba−C×(D−Bd))/(D−Bd)]×(D−Bd) Wherein: • A is the fluorescence intensity of the sample at 665 nm; • D is the fluorescence intensity of the sample at 615 nm; • Ba and Bd are plate backgrounds at 665 nm and 615 nm, respectively; and • Dc is the fluorescence intensity of 0.67 nM Eu-SA in the assay buffer at 615 nm.
The cross-talk factor (C) was determined by the following formula: C=(Ac−Ba)/(Dc−Bd) wherein Ac is the fluorescence intensity of 0.67 nM Europium (Eu) conjugated Streptavidin in the assay buffer at 665 nm.
In general terms: Time-resolved FRET reads energy transfer from a long-lived donor to a nearby acceptor.

The structures appear in SMILES notation.

Regarding `CN1CC[C@@H](Nc2cccc3c2cc(-c2noc(CNC(=O)c4cnn([C@H]5CCC[C@@H]5F)c4)n2)n3CC(F)(F)F)[C@@H](F)C1` (relative stereo) [Compound 395B], the “Y220C SC150 (μM)” value is given as “* (* = 0 μM ≤ SC150 < 0.1 μM)”.

With `COc1cc(S(C)(=O)=O)ccc1NCc1nnc(-c2cc3c(N[C@H]4CCN(C)C[C@@H]4F)cccc3n2CC(F)(F)F)s1` (racemic) [Compound 28B, (+/−)-N-[(3R,4R)-3-fluoro-1-methylpiperidin-4-yl]-2-(5-{[(4-methanesulfonyl-2-methoxyphenyl)amino]methyl}-1,3,4-thiadiazol-2-yl)-1-(2,2,2-trifluoroethyl)-1H-indol-4-amine], the “Y220C SC150 (μM)” value is on record as “* (* = 0 μM ≤ SC150 < 0.1 μM)”.

As for `CCN1CC[C@@H](Nc2cccc3c2cc(-c2noc(CNC(=O)c4ccn(CCOC)c4)n2)n3CC(F)(F)F)[C@@H](F)C1` [Compound 272B, N-{[3-(4-{[(3S,4R)-1-ethyl-3-fluoropiperidin-4-yl]amino}-1-(2,2,2-trifluoroethyl)-1H-indol-2-yl)-1,2,4-oxadiazol-5-yl]methyl}-1-(2-methoxyethyl)-1H-pyrrole-3-carboxamide], the “Y220C SC150 (μM)” value is reported as “* (* = 0 μM ≤ SC150 < 0.1 μM)”.

`CC(C)(C)n1cnc(C(=O)NCc2nc(-c3cc4c(N[C@@H]5CCN(C6CC6)C[C@@H]5F)cccc4n3CC(F)(F)F)no2)c1` [Compound 329B]: the “Y220C SC150 (μM)” value is “* (* = 0 μM ≤ SC150 < 0.1 μM)”.

On to `CC(C)(C#N)c1ccc(NCc2ccc(-c3cc4c(NC5CCS(=O)(=O)CC5)cccc4n3CC(F)(F)F)cc2)cn1` [Compound 7A, 2-(5-{[(4-{4-[(1,1-dioxo-1λ^6-thian-4-yl)amino]-1-(2,2,2-trifluoroethyl)-1H-indol-2-yl}phenyl)methyl]amino}pyridine-2-yl)-2-methylpropanenitrile], for which the “SC150 (μM)” value was “++ (++ = 2 μM ≤ SC150 < 5 μM)”.

In the case of `CN1CC[C@@H](Nc2cccc3c2cc(-c2noc(CNC(=O)c4cn5c(n4)CCCC5)n2)n3CC(F)(F)F)[C@@H](F)C1` [Compound 541B, N-{[3-(4-{[(3S,4R)-3-fluoro-1-methylpiperidin-4-yl]amino}-1-(2,2,2-trifluoroethyl)-1H-indol-2-yl)-1,2,4-oxadiazol-5-yl]methyl}-5H,6H, 7H,8H-imidazo[1,2-a]pyridine-2-carboxamide], the “Y220C SC150 (μM)” value is “* (* = 0 μM ≤ SC150 < 0.1 μM)”.

On to `COCCn1cccc1C(=O)NCc1nc(-c2cc3c(N[C@@H]4CCN(C)C[C@@H]4F)cccc3n2CC(F)(F)F)no1` [Compound 538B, N-{[3-(4-{[(3S,4R)-3-fluoro-1-methylpiperidin-4-yl]amino}-1-(2,2,2-trifluoroethyl)-1H-indol-2-yl)-1,2,4-oxadiazol-5-yl]methyl}-1-(2-methoxyethyl)-1H-pyrrole-2-carboxamide], for which the “Y220C SC150 (μM)” value is “* (* = 0 μM ≤ SC150 < 0.1 μM)”.

As to `CN1CC[C@@H](Nc2cccc3c2cc(-c2noc(CNC(=O)c4ccn([C@H]5CC[C@@H](N(C)C)C5)c4)n2)n3CC(F)(F)F)[C@@H](F)C1` (stereo in doubt) [Compound 362B, Cis-1-[(1R,3R)-3-(dimethylamino)cyclopentyl]-N-{[3-(4-{[(3S,4R)-3-fluoro-1-methylpiperidin-4-yl]amino}-1-(2,2,2-trifluoroethyl)-1H-indol-2-yl)-1,2,4-oxadiazol-5-yl]methyl}-1H-pyrrole-3-carboxamide], the “Y220C SC150 (μM)” value is listed as “* (* = 0 μM ≤ SC150 < 0.1 μM)”.

On to `COCC(O)CN1CCC(Nc2cccc3c2cc(-c2ccc4c(C)[nH]nc4c2)n3CC(F)(F)F)CC1` (stereo not drawn) [Compound 47A, 1-methoxy-3-(4-{[2-(3-methyl-2H-indazol-6-yl)-1-(2,2,2-trifluoroethyl)-1H-indol-4-yl]amino}piperidin-1-yl)propan-2-ol], for which the “SC150 (μM)” value is given as “+++ (+++ = 5 μM ≤ SC150 < 10 μM)”.

`CCOCC1(n2ccc(C(=O)NCc3nc(-c4cc5c(N[C@@H]6CCN(C)C[C@@H]6F)cccc5n4CC(F)(F)F)no3)c2)CC1` [Compound 481B, 1-[1-(ethoxymethyl)cyclopropyl]-N-{[3-(4-{[(3S,4R)-3-fluoro-1-methylpiperidin-4-yl]amino}-1-(2,2,2-trifluoroethyl)-1H-indol-2-yl)-1,2,4-oxadiazol-5-yl]methyl}-1H-pyrrole-3-carboxamide]: the “Y220C SC150 (μM)” value was “* (* = 0 μM ≤ SC150 < 0.1 μM)”.

With `CN1CC[C@@H](Nc2cccc3c2cc(-c2noc(CNC(=O)c4cnc(C5(C)CCOCC5)s4)n2)n3CC(F)(F)F)[C@@H](F)C1` [Compound 473B, N-{[3-(4-{[(3S,4R)-3-fluoro-1-methylpiperidin-4-yl]amino}-1-(2,2,2-trifluoroethyl)-1H-indol-2-yl)-1,2,4-oxadiazol-5-yl]methyl}-2-(4-methyloxan-4-yl)-1,3-thiazole-5-carboxamide], the “Y220C SC150 (μM)” value is listed as “* (* = 0 μM ≤ SC150 < 0.1 μM)”.

Take `Cn1cc(C(=O)NCc2nc(-c3cc4c(N[C@@H]5CCN(C(C)(C)C)C[C@H]5F)cccc4n3CC(F)(F)F)no2)cn1` (racemic) [Compound 407B, N-{[3-(4-{[(3R,4R)-1-tert-butyl-3-fluoropiperidin-4-yl]amino}-1-(2,2,2-trifluoroethyl)-1H-indol-2-yl)-1,2,4-oxadiazol-5-yl]methyl}-1-methyl-1H-pyrazole-4-carboxamide]: the “Y220C SC150 (μM)” value is reported as “* (* = 0 μM ≤ SC150 < 0.1 μM)”.

Regarding `CC(C)(C)n1ccc(C(=O)NCc2nc(-c3cc4c(N[C@@H]5CCN(C6CC6)C[C@@H]5F)cccc4n3CC(F)(F)F)no2)c1` [Compound 330B, 1-tert-butyl-N-{[3-(4-{[(3S,4R)-1-cyclopropyl-3-fluoropiperidin-4-yl]amino}-1-(2,2,2-trifluoroethyl)-1H-indol-2-yl)-1,2,4-oxadiazol-5-yl]methyl}-1H-pyrrole-3-carboxamide], the “Y220C SC150 (μM)” value is listed as “* (* = 0 μM ≤ SC150 < 0.1 μM)”.

For the molecule `CN1CC[C@@H](Nc2cccc3c2cc(-c2noc(CNC(=O)c4csc(C5(CO)CC5)c4)n2)n3CC(F)(F)F)[C@@H](F)C1` [Compound 487B, N-{[3-(4-{[(3S,4R)-3-fluoro-1-methylpiperidin-4-yl]amino}-1-(2,2,2-trifluoroethyl)-1H-indol-2-yl)-1,2,4-oxadiazol-5-yl]methyl}-5-[1-(hydroxymethyl)cyclopropyl]thiophene-3-carboxamide], the “Y220C SC150 (μM)” value is “* (* = 0 μM ≤ SC150 < 0.1 μM)”.

On to `O=C(NCc1nc(-c2cc3c(NC4CCN(Cc5ccccc5)CC4)cccc3n2CC(F)(F)F)no1)C1CC1` [Compound 163B, N-[(3-{4-[(1-benzylpiperidin-4-yl)amino]-1-(2,2,2-trifluoroethyl)-1H-indol-2-yl}-1,2,4-oxadiazol-5-yl)methyl]cyclopropanecarboxamide], for which the “Y220C SC150 (μM)” value is “* (* = 0 μM ≤ SC150 < 0.1 μM)”.

On to `CN1CC[C@@H](Nc2cccc3c2cc(-c2noc(CNC(=O)c4ccn(C5CCCC5)c4)n2)n3CC(F)(F)F)[C@@H](F)C1` [Compound 319B, 1-cyclopentyl-N-{[3-(4-{[(3S,4R)-3-fluoro-1-methylpiperidin-4-yl]amino}-1-(2,2,2-trifluoroethyl)-1H-indol-2-yl)-1,2,4-oxadiazol-5-yl]methyl}-1H-pyrrole-3-carboxamide], for which the “Y220C SC150 (μM)” value is listed as “* (* = 0 μM ≤ SC150 < 0.1 μM)”.

Turning to `COCC(C)n1cc(C(=O)NCc2nc(-c3cc4c(N[C@@H]5CCN(C)C[C@@H]5F)cccc4n3CC(F)(F)F)no2)cn1` (stereo partly drawn) [Compound 302B, N-{[3-(4-{[(3S,4R)-3-fluoro-1-methylpiperidin-4-yl]amino}-1-(2,2,2-trifluoroethyl)-1H-indol-2-yl)-1,2,4-oxadiazol-5-yl]methyl}-1-(1-methoxypropan-2-yl)-1H-pyrazole-4-carboxamide], the “Y220C SC150 (μM)” value is recorded as “* (* = 0 μM ≤ SC150 < 0.1 μM)”.

Take `CN1CC[C@@H](Nc2cccc3c2cc(-c2nnc(CNC(=O)c4ccn(C(C)(C)C)c4)o2)n3CC(F)(F)F)[C@@H](F)C1` [Compound 288B, 1-tert-butyl-N-{[5-(4-{[(3S,4R)-3-fluoro-1-methylpiperidin-4-yl]amino}-1-(2,2,2-trifluoroethyl)-1H-indol-2-yl)-1,3,4-oxadiazol-2-yl]methyl}-1H-pyrrole-3-carboxamide]: the “Y220C SC150 (μM)” value is “* (* = 0 μM ≤ SC150 < 0.1 μM)”.
